# From US20230310387A1, “Reduced Dose Metaxalone Formulations” (Primus Pharmaceuticals, Inc., priority 2023, published 2023)
# Key:
# [1] = Particle Size Analysis by Sieve Method; type: physicochemical; details: non-micronized metaxalone
# Text: The Sieve Method refers to the method for particle size analysis described in American Society for Testing and Materials (ASTM) standard C 136 (in effect on Jan. 1, 2019). In the method a representative weighed sample is poured into the top sieve which has the largest screen openings. Each lower sieve in the column has smaller openings than the one above. At the base is a round pan, called the receiver. The column is typically placed in a mechanical shaker. such as the sonic sifter available from Endecotts (London, UK). See Endecotts website at https://www.endecotts.com/products/sieve-shakers/sonic-sifter/product-specifications/. The shaker shakes the column, usually for some fixed amount of time. After the shaking is complete the material on each sieve is weighed. The mass of the sample of each sieve is then divided by the total mass to give a percentage retained on each sieve. The size of the average particle on each sieve is then analyzed to get a cut-off point or specific size range, which is then captured on a screen. Tables 2a and 2b describes representative particle sizes for the micronized and non-micronized metaxalone particles used in the formulation of Table 1. [table]
# [2] = Particle Size Analysis by Malvern Method; type: physicochemical; details: micronized metaxalone
# Text: In one subembodiment, when the formulation is characterized based on metaxalone particle size, at least 50%, 70%, or 90% of the micronized particles of metaxalone are smaller than 200, 100, or 75 microns when tested according to the Malvern Method (i.e. laser diffraction). Alternatively or in addition, at least 30%, 40%, or 50% of the micronized particles are less than 50, 30, or 20 microns. when tested according to the Malvern Method. Tables 2a and 2b describes representative particle sizes for the micronized and non-micronized metaxalone particles used in the formulation of Table 1. [table]
% Retained on Sieve # 30 [1],% Retained on Sieve # 120 [1],% Retained on Sieve # 325 [1],10% of the Particles (d10) [2],50% of the Particles (d50) [2],90% of the Particles (d90) [2],Compound
1%,49%,30%,,,,"Cc1cc(C)cc(OCC2CNC(=O)O2)c1 (single isomer, unassigned) [Lot2b, metaxalone]"
1%,61%,28%,,,,"Cc1cc(C)cc(OCC2CNC(=O)O2)c1 (single isomer, unassigned) [Lot2d, metaxalone]"
,,,0.81 µ,10.11 µ,49.91 µ,"Cc1cc(C)cc(OCC2CNC(=O)O2)c1 (stereo not drawn) [Lot2a, metaxalone]"
1%,63%,29%,,,,"Cc1cc(C)cc(OCC2CNC(=O)O2)c1 (single isomer, unassigned) [Lot2c, metaxalone]"
